Measurements: EP0332946B1, “The dipeptide L-pyroglutamyl-L-cysteine, having a high anti-cataractogenic activity, and pharmaceutical compositions containing the same” (S.I.F.I. Società Industria Farmaceutica Italiana S.p.A., priority 1988, dated 1993)
Like-named read-outs stand apart in the source and are kept apart here. Non-standard residues stand in square brackets, D forms with d. Residues, ends and D or L forms follow the SMILES beside them. pGlu = O=C1CC[C@@H](C(=O)O)N1

Key:
rat lenses = experiment: Experimental model of in vitro cataract (isolated lenses incubated in high-glucose culture broth); type: cell-based, rats; settings: lenses treated with PGC 1M; 55.5 mM glucose
Protocol: Male albino Wistar rats having an average weight of 180 g have been used. After decapitation, both eye bulbs have been enucleated and the lenses have been removed from the back. The isolated lenses have been incubated at 37°C during 5 days in culture broth 199 containing 15% of foetal bovine serum (Laboratorio Gebco) and a 55.5 mM concentration of glucose. PGC has been added at a 1M concentration into the culture broth of only some lenses. The observations have been carried out at the 3rd and 5th day with the use of a stereo microscope and a Nikon camera with annular flash.
It can be observed that in the control lenses the opaqueness development begins after only 72 hours of incubation and is complete after 120 hours. In the lenses treated with PGC low levels of opaqueness can not be observed before 120 hours of treatment.

Male albino Wistar rats = experiment: Cataract from tryptophan deficiency (in vivo experimental cataract model, slit lamp evaluation); settings: rats on tryptophan-deficient diet, 30 days
Protocol: Said rats have been fed a synthetic diet devoid of tryptophan for a 30 days period and divided in three groups: the first animal group has been administered PGC subcutaneously at a dosage of 1 mg/kg in buffer solution, the second group has been administered a 10 mg/kg doses, whilst the animals of the third group have been injected only buffer solution.
The conditions of the various eye sections : conjunctiva, cornea, interior chamber, lens and vitreous humor have been evaluated at the slit lamp.
Especially the localisation and the degree of lens opaqueness have been scrutinized and documented by means of photographs.
It was possible to observe opaqueness predominantly at the level at the posterior capsule and there was also evidence of an initial sclerosis of the nucleus. No further alterations either at the level of the anterior segment or of the posterior segment have been observed.

[1] = tested on: Female albino Sprague-Dowely rats; experiment: Cataract due to hypergalactosemic diet (in vivo experimental cataract model, slit lamp evaluation); settings: rats on 50% galactose diet, 20 days; PGC 10% in buffer, one drop twice a day into the conjunctive sac
From the text: Female albino Sprague-Dowely rats having an average weight of 70 g have been used. Said rats have been fed a diet consisting of 50% galactose and the remaining 50% standard rat food during a 20 days period. The animals have been divided in two groups: the first animal group has been administered PGC (10% in buffer) by instilling one drop twice a day into the conjuctive sac, both sides; the second group, consisting of control animals, has been administered buffer only.
The conditions of the various eye sections : conjunctiva, cornea, interior chamber, lens and vitreous humor have been evaluated at the slit lamp. The examination has been carried out before the beginning of the treatment and then on the 5th, 10th, 15th and 20th day.

male New-Zealand rabbits [2] = experiment: Toxicity (systemic tolerability) after intraperitoneal injection; type: in vivo
Protocol: The systemic tolerability of PGC has been studied also after acute administration by means of intraperitoneal injection.
10 rabbits have received the substance (400 mg/kg) injected intraperitoneally.
24 hours after the administration of the product, the following examination have been carried out on urine and blood: • blood cell (red and white) count • determination of glycemia and acotemia; • evaluation of SGOT and SGPT transaminases

male New-Zealand rabbits [3] = settings: rabbit, in vivo

## O=C1CC[C@@H](C(=O)N[C@@H](CS)C(=O)O)N1 [PGC, L-pyroglutamyl-L-cysteine] ([pGlu]-Cys-OH)
Rat lenses
  time before low levels of opaqueness can be observed: ≥ 120 h
Male albino Wistar rats; PGC 1 mg/kg subcutaneously
  lens opaqueness: perfectly transparent
Male albino Wistar rats; PGC 10 mg/kg subcutaneously
  lens opaqueness: perfectly transparent
[1]
  effect on the formation of lens opaqueness: protective effect
  percent of opaque lenses as a whole in the treated animals relative to the controls: 60%
Male New-Zealand rabbits [2]; PGC 400 mg/kg intraperitoneally, 24 hours after administration, urine and blood examination
  changes of the hematological or hematochemical constants or of the urine composition: not shown any changes
Male New-Zealand rabbits [2]; PGC intraperitoneally
  growth modification relative to control animals: No growth modification
Male New-Zealand rabbits [2]; PGC intraperitoneally (400 mg/kg), day 0 (baseline), average ± SD, n=10
  BODY WEIGHT INCREASE (KG) ON DAY 0: 1.45 ± 0.05 kg
Male New-Zealand rabbits [2]; PGC intraperitoneally (400 mg/kg), day 20, average ± SD, n=10
  BODY WEIGHT INCREASE (KG) ON DAY 20: 2.25 ± 0.08 kg
Male New-Zealand rabbits [3]
  BODY WEIGHT INCREASE (KG) ON DAY 0: 1.60 ± 0.08 kg
  BODY WEIGHT INCREASE (KG) ON DAY 20: 2.34 ± 0.12 kg
  changes of the hematological or hematochemical constants or of the urine composition: not shown any changes
  growth modification relative to control animals: No growth modification
